The subject of assay [1] is Lewis rats. Nature of the assay: Intraperitoneal glucose tolerance test (IPGTT) in normal Lewis rats after a single i.v. dose. The format is in vivo, rat. The settings on record: for blood glucose excursion during IPGTT: Lewis rats 9-11 week old, 1.6 μg/gm body weight i.v. 60 min before IPGTT, vs vehicle. As for the experimental part: (§1) Experimental animals. All animal studies were reviewed and approved by the Institutional Animal Care and Use Committee (IACUC) at Columbia University's Medical School. All experiments were performed in accordance with the IACUC approved procedures. Normal male Lewis rats (100-400 grams) were obtained from Taconic (Taconic Inc., Germantown, N.Y.) and were housed under conditions of controlled humidity (55±5%), temperature (23±1° C.), and lighting (light on: 06.00-18.00 hours) with free access to standard laboratory rat chow and water. Rats were handled daily to minimize nonspecific stress for more than 7 days before the experiments began. In most experiments, it was necessary to measure blood glucose in fasting animals. For these groups, food was removed at the beginning of the light cycle, 6 hours before glucose levels were measured. Diabetes mellitus was induced by intraperitoneal injection of streptozotocin (Sigma Chemical Co., St. Louis, Mo.) (25 to 50 mg/kg) to animals (100 to 150 grams) that had been fasted 4 hours to enhance the effectiveness of STZ treatment.
(§2) The STZ solution was prepared fresh by dissolving it in 0.1 M citrate buffer (pH 5.5) and terminally sterile filtered. Control Lewis age and weight matched rats received a 0.5 ml/kg citrate vehicle alone via intraperitoneal injection. Sixty minutes prior to intraperitoneal glucose tolerance testing (IPGTT), anesthesia of male Lewis rats was induced with isoflurane (3-4% in oxygen) and maintained with 1-2% isoflurane in oxygen. Anaesthetized rats were administered TBZ at the indicated dose by intravenous (i.v.) injection using the penile vein. TBZ was dissolved in neat sterile dimethylsulfoxide (DMSO) and diluted (always more than 10 fold) in sterile saline. Rats received injections of vehicle alone (10% DMSO in saline) or reserpine (in saline). Animals recovered fully before receiving IPGTT.
Blood glucose, insulin, glucagon and intraperitoneal glucose tolerance tests measurements. Blood samples were collected from a superficial blood vessel in the tails of the rats following 6 hours of fasting between 12:00 noon and 2:00 p.m. The fasting blood glucose (BG) levels of the rats were measured using an Accu-Check blood glucose monitoring system (Roche Diagnostics, Sommerville, N.J.). Intraperitoneal glucose tolerance tests (IPGTT) were performed in 6 hour fasting un-anaesthetized animals. Briefly, after baseline BG measurements, animals received an intraperitoneal (i.p.) injection of 1 gram glucose/kilogram body weight. To minimize stress during the procedure, rats were handled by the same operator during acclimatization and later during weighing and IPGTT. Blood samples (approximately 30 μl) were collected at baseline and then again 15, 30, 60, 90, and 120 minutes following i.p. glucose administration. BG concentrations were measured immediately on these samples and the remainder processed.
Plasma was immediately separated by centrifugation at 3000×g for 15 minutes and then stored at −20° C. until analysis. Insulin and glucagon concentration measurements in rat plasma were performed by ELISA as per the manufacturer's instructions using kits from Linco Research Inc. (St. Charles, Mo.) and Alpco Diagnostics (Salem, N.H.), respectively. To validate the test, saline injections were performed by the same method. […] The area under the IPGTT glucose concentration×time curve (AUCIPGTT) was calculated by the trapezoidal rule. The area under the insulin or glucagon concentration×time curve (AUC INS or AUC GCG) was calculated in a similar manner.

For assay [2], the system named is diabetic Lewis rats. As to the kind of experiment: IPGTT in streptozotocin-induced diabetic Lewis rats. The format is in vivo, rat. As for the experimental part: as §1, §2
Blood glucose, insulin, glucagon and intraperitoneal glucose tolerance tests measurements. Blood samples were collected from a superficial blood vessel in the tails of the rats following 6 hours of fasting between 12:00 noon and 2:00 p.m. The fasting blood glucose (BG) levels of the rats were measured using an Accu-Check blood glucose monitoring system (Roche Diagnostics, Sommerville, N.J.). […] BG concentrations were measured immediately on these samples and the remainder processed.
Plasma was immediately separated by centrifugation at 3000×g for 15 minutes and then stored at −20° C. until analysis. […] The area under the IPGTT glucose concentration×time curve (AUCIPGTT) was calculated by the trapezoidal rule. The area under the insulin or glucagon concentration×time curve (AUC INS or AUC GCG) was calculated in a similar manner.

Each structure is given as a SMILES string. Entries after “also recorded” stand apart in the source; their conditions may differ.

For `COc1cc2c(cc1OC)C1CC(=O)C(CC(C)C)CN1CC2` (centres unmarked) [TBZ, tetrabenazine], in assay [1] (1.6 μg/gbm (gram body weight) i.v.), the “reduction of the glucose excursion (areas under the curve during IPGTT)” value is reported as 40-50%. The “AUC IPGTT, controls vs TBZ treated animals” value in assay [1] (1.6 μg/gm body weight, n=4 experiments, p<0.05) is “significantly higher”. Moreover, in assay [1] (IPGTT following TBZ administration), the “rise in glucose concentration around 15 minutes after injection” value is on record as “blunted”. The “blood glucose excursion during IPGTT” value was “reduces the blood glucose excursion” in assay [1]; “significant change in the size and shape of the glucose disposition curve” in assay [1] (listed as tetrabenazine); “reduces the blood glucose excursion” in assay [2] (STZ-diabetic Lewis rats, 1.6 μg/gm, vs vehicle). Moreover, in assay [1] (following TBZ administration, before glucose challenge, data not shown), the “baseline fasting glucose concentration” value is listed as “no reproducible differences”. In addition, the “dose response of AUC IPGTT (normalized to baseline)” value in assay [1] (varying doses of TBZ before IPGTT) is recorded as “reduces the blood glucose excursion in a dose dependent manner; also recorded: complex dose response effect”. The “blood glucose levels before i.p. glucose challenge” value in assay [2] (STZ-diabetic rats, around sixty minutes following i.v. injection) is listed as “returned to control or near normal levels”. For the same molecule, the “area under the curve in the IPGTT” value in assay [2] (STZ-diabetic rats, following glucose challenge) was “smaller area under the curve”. In addition, the glucose tolerance-enhancing effects result in assay [2] (animals with initial untreated AUC IPGTT>50,000 minutes×mg/dl, data not shown) is listed as “not observed”.

(Values after patent publication US20100204258A1, “METHODS AND COMPOSITIONS FOR MODULATING INSULIN SECRETION AND GLUCOSE METABOLISM” (The Trustees of Columbia University in the City of New York, priority 2007, published 2010).)
